Assay [1] deals with Cbl-b (Homo sapiens (Human), UniProt Q13191). Briefly: Cbl-b LCK Ub TR-FRET assay (Cbl-b Lck HTRF). The assay is classed as biochemical. Conditions: for IC50: Cbl-b LCK Ub TR-FRET; for fold-selectivity (Cbl-b over C-cbl): ratio C-cbl Lck HTRF IC50 / Cbl-b Lck HTRF IC50. In outline:
(§1)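 Signal is read once the detection mix has stood 20 min at ambient temperature. Curves are anchored by DMSO as maximum and by omission of LCK as minimum.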

For assay [2], the target named is c-Cbl (residues 47-435) (Homo sapiens (Human), UniProt P22681). Briefly: c-Cbl SPR assay. Format: binding. Conditions: 20° C. In short, it runs like this: (§2)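 Values derive from a 1:1 model fitted to multicycle kinetics on captured protein (1300-1500 RU), using six 2-fold concentrations, 60 s contact and dissociation of 120-1200 s. In the chaser format, kd comes from a single-exponential fit of % site occupancy over time.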
Sequence of c-Cbl (residues 47-435) (P22681 47-435): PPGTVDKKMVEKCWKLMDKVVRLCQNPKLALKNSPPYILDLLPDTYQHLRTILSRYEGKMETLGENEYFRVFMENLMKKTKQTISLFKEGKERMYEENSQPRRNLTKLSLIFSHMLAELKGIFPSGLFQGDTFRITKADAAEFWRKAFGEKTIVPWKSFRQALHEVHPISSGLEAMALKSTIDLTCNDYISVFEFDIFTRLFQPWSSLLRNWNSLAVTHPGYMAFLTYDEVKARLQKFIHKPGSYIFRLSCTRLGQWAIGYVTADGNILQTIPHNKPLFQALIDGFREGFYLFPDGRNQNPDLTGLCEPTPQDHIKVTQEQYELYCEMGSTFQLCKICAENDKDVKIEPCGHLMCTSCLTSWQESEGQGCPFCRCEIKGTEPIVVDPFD

Assay [3] deals with Human Cbl-b (residues 40-426) (Homo sapiens (Human), UniProt Q13191). Briefly: Cbl-b SPR assay. The assay is classed as binding. Conditions: for Fold of selectivity: C-cbl SPR Kd vs Cbl-b SPR Kd; for Kd: SPR, 20° C. In outline:
as §2

Assay [4] deals with c-Cbl (Homo sapiens (Human), UniProt P22681). Description: C-Cbl LCK Ub TR-FRET assay (C-cbl Lck HTRF). Format: biochemical. In short, it runs like this:
as §1
A general note: TR-FRET usually uses a lanthanide donor and a delayed reading to cut background.

Eleven molecules from US12187709B2 (Genentech, Inc., priority 2021, dated 2025) can be followed below.

Sequence of Human Cbl-b (residues 40-426) (Q13191 40-426): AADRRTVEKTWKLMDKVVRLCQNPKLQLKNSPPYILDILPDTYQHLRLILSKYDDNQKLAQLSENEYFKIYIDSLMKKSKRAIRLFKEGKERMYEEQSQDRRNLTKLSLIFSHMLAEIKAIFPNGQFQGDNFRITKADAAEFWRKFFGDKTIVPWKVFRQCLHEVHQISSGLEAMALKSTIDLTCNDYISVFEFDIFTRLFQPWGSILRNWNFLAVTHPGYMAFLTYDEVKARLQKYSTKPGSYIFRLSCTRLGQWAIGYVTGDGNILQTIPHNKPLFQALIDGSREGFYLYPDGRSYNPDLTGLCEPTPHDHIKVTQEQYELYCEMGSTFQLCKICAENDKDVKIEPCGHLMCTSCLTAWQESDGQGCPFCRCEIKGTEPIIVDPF
Sequence of Cbl-b (Q13191 40-426): as above
Sequence of c-Cbl (P22681 47-435): as the sequence (P22681 47-435) above

Consider `CC(C)[C@H]1CN(C)CCN1Cc1cc2c(c(C(F)(F)F)c1)CN(c1cc([C@]3(c4nncn4C)C[C@@H](C)C3)cc(OC3CCCC3)n1)C2=O` [Compound 72, 2-(6-(cyclopentyloxy)-4-((1S,3R)-3-methyl-1-(4-methyl-4H-1,2,4-triazol-3-y)cyclobutyl)pyridin-2-yl)-6-(((S)-2-isopropyl-4-methylpiperazin-1-yl)methyl)-4-(trifluoromethyl)isoindolin-1-one], for which the IC50 (usually the concentration at which inhibition is half-maximal) in assay [1] amounted to 2400 nM; in assay [4], 5300 nM. Besides, in assay [1], the “fold-selectivity (Cbl-b over C-cbl)” value is listed as “(2.4x)”. Further, the Kd (commonly the free concentration of one partner at which half of the binding sites on the other are occupied at equilibrium, for simple one-to-one binding) in assay [2] came to 1.8 nM; in assay [3], 0.4 nM. The molecule also displayed a Fold of selectivity in assay [3] of 4.5×.

`CC(C)[C@H]1CN(C)CCN1Cc1cc2c(c(C(F)(F)F)c1)CN(c1cc([C@]3(c4nncn4C)C[C@@H](C)C3)cc(NC3CCCC3)n1)C2=O` [Compound 74, 2-(6-(cyclopentylamino)-4-((1S,3R)-3-methyl-1-(4-methyl-4H-1,2,4-triazol-3-yl)cyclobutyl)pyridin-2-yl)-6-(((S)-2-isopropyl-4-methylpiperazin-1-yl)methyl)-4-(trifluoromethyl)isoindolin-1-one]: in assay [1], it took 15 nM to reach half-maximal inhibition (IC50) and the “fold-selectivity (Cbl-b over C-cbl)” value is listed as “(1.5x)”. This molecule also registered a Kd in assay [2] of 72 nM. Moreover, in assay [3], the Fold of selectivity is given as 8.7× and the affinity, expressed as Kd, was 8.3 nM. Further, the midpoint of inhibition in assay [4], the IC50, lay at 23 nM.

As for `Cn1cnnc1[C@]1(c2cccc(N3Cc4c(cc(CNC5(C)CCC5)cc4C(F)(F)F)C3=O)c2)C[C@H](CC#N)C1` [Compound 88, 2-((1s,3s)-3-(4-methyl-4H-1,2,4-triazol-3-yl)-3-(3-(6-(((1-methylcyclobutyl)amino)methyl)-1-oxo-4-(trifluoromethyl)isoindolin-2-yl)phenyl)-cyclobutyl)acetonitrile], in assay [1], the 50% inhibitory concentration (IC50) stood at 12 nM and the “fold-selectivity (Cbl-b over C-cbl)” value is listed as 1.0x. In assay [2], this molecule had an equilibrium dissociation constant (Kd) of 87 nM. In assay [3], this molecule yielded a Fold of selectivity of 4.1× and a Kd of 21 nM. Also, it took 12 nM to reach half-maximal inhibition in assay [4] (IC50).

In the case of `Cn1cnnc1[C@]1(c2cccc(N3Cc4c(cc(CNC5(C)CCC5)cc4C(F)(F)F)C3=O)c2)C[C@@H](CC#N)C1` [Compound 89, 2-((1r,3r)-3-(4-methyl-4H-1,2,4-triazol-3-yl)-3-(3-(6-(((1-methylcyclobutyl)amino)methyl)-1-oxo-4-(trifluoromethyl)isoindolin-2-yl)phenyl)-cyclobutyl)acetonitrile], in assay [1], the concentration for half-maximal inhibition (IC50) amounted to 41 nM and the “fold-selectivity (Cbl-b over C-cbl)” value is 2.4x. In addition, binding in assay [2] was characterised by a dissociation constant (Kd) of 4 nM. Moreover, in assay [3], the Fold of selectivity is 6.6× and the dissociation constant Kd was 0.6 nM. In assay [4], this molecule registered an IC50 of 98 nM.

`CCNc1cc(N2Cc3c(cc(CNC4(C)CCC4)cc3C(F)(F)F)C2=O)cc([C@]2(c3nncn3C)C[C@H](C)C2)c1` [Compound 90, 2-(3-(ethylamino)-5-((1r,3r)-3-methyl-1-(4-methyl-4H-1,2,4-triazol-3-yl)cyclobutyl)phenyl)-6-(((1-methylcyclobutyl)amino)methyl)-4-(trifluoromethyl)isoindolin-1-one]: in assay [1], the IC50 was determined as 7.8 nM and the “fold-selectivity (Cbl-b over C-cbl)” value is recorded as 0.83x. In addition, in assay [2], the Kd was 0.4 nM. Further, in assay [3], the Fold of selectivity came to 2.0× and the affinity, expressed as Kd, was 0.2 nM. Besides, 6.6 nM corresponded to half-maximal inhibition in assay [4] (IC50).

Consider `CCNc1cc(N2Cc3c(cc(CNC4(C)CCC4)cc3C(F)(F)F)C2=O)cc([C@]2(c3nncn3C)C[C@@H](C)C2)c1` [Compound 91, 2-(3-(ethylamino)-5-((1s,3s)-3-methyl-1-(4-methyl-4H-1,2,4-triazol-3-yl)cyclobutyl)phenyl)-6-(((1-methylcyclobutyl)amino)methyl)-4-(trifluoromethyl)-isoindolin-1-one], for which, in assay [1], 10 nM corresponded to half-maximal inhibition (IC50) and the “fold-selectivity (Cbl-b over C-cbl)” value amounted to 0.8x. In assay [2], this molecule gave a Kd of 0.9 nM. For the same molecule, in assay [3], the Fold of selectivity was 3.0× and binding was characterised by a dissociation constant (Kd) of 0.3 nM. In assay [4], this molecule displayed a half-maximal inhibitory concentration (IC50) of 8 nM.

For `Cn1cnnc1C1(c2cccc(N3Cc4c(cc(CNC5(C)CCC5)cc4C(F)(F)F)C3=O)c2)CC2(CC(F)(F)C2)C1` [Compound 94, 2-(3-(6,6-difluoro-2-(4-methyl-4H-1,2,4-triazol-3-yl)spiro[3.3]heptan-2-yl)phenyl)-6-(((1-methylcyclobutyl)amino)methyl)-4-(trifluoromethyl)isoindolin-1-one], in assay [1], the IC50 is 21 nM and the “fold-selectivity (Cbl-b over C-cbl)” value was determined as 6.0x. This molecule also had a Kd in assay [2] of 140 nM. In assay [3], this molecule came in with a Fold of selectivity of 19× and a dissociation constant Kd of 7.4 nM. This molecule also had an IC50 in assay [4] of 120 nM.

On to `Cn1cnnc1[C@]1(c2cccc(N3Cc4c(cc(CNC5(C)CCC5)cc4C(F)(F)F)C3=O)c2)C[C@H](F)C1` [Compound 95, 2-(3-((1s,3s)-3-fluoro-1-(4-methyl-4H-1,2,4-triazol-3-yl)cyclobutyl)-phenyl)-6-(((1-methylcyclobutyl)amino)methyl)-4-(trifluoromethyl)isoindolin-1-one], for which the figures for the half-maximal inhibitory concentration (IC50) in assay [1] and in assay [4] were 12 nM and 21 nM, respectively. Besides, in assay [1], the “fold-selectivity (Cbl-b over C-cbl)” value was 1.7x. The Kd stood at 15 nM in assay [2] and 2 nM in assay [3]. For the same molecule, the Fold of selectivity in assay [3] stood at 7.5×.

Turning to `Cn1cnnc1C1(c2cccc(N3Cc4c(cc(CNC5(C)CCC5)cc4C(F)(F)F)C3=O)c2)CC2(CN(CC(F)(F)F)C2)C1` [Compound 96, 2-(3-(6-(4-methyl-4H-1,2,4-triazol-3-yl)-2-(2,2,2-trifluoroethyl)-2-azaspiro[3.3]heptan-6-yl)phenyl)-6-(((1-methylcyclobutyl)amino)methyl)-4-(trifluoromethyl)-isoindolin-1-one], in assay [1], 4500 nM corresponded to half-maximal inhibition (IC50) and the “fold-selectivity (Cbl-b over C-cbl)” value was determined as 3.7x. In addition, in assay [2], the dissociation constant (Kd) was found to be 18000 nM. In addition, in assay [3], the Fold of selectivity was found to be 4.1× and the Kd came out at 4300 nM. In addition, the half-maximal inhibitory concentration (IC50) in assay [4] came to 16000 nM.

Regarding `Cn1cnnc1[C@]1(c2cccc(N3Cc4c(cc(CNC5(C)CCC5)cc4C(F)(F)F)C3=O)c2)C[C@H](CO)C1.O=CO` [Compound 99, 2-(3-((1s,3s)-3-(hydroxymethyl)-1-(4-methyl-4H-1,2,4-triazol-3-yl)cyclobutyl)phenyl)-6-(((1-methylcyclobutyl)amino)methyl)-4-(trifluoromethyl)isoindolin-1-one formate], in assay [1], the IC50 was determined as 86 nM and the “fold-selectivity (Cbl-b over C-cbl)” value was 3.7x. In addition, the Kd in assay [2] came to 230 nM. In assay [3], this molecule registered a Fold of selectivity of 4.8× and a dissociation constant (Kd) of 48 nM. This molecule also displayed an IC50 in assay [4] of 320 nM.

Regarding `Cn1cnnc1[C@]1(c2cccc(N3Cc4c(cc(CNC5(C)CCC5)cc4C(F)(F)F)C3=O)c2)C[C@@H](CO)C1.O=CO` [Compound 100, 2-(3-((1r,3r)-3-(hydroxymethyl)-1-(4-methyl-4H-1,2,4-triazol-3-yl)cyclobutyl)phenyl)-6-(((1-methylcyclobutyl)amino)methyl)-4-(trifluoromethyl)isoindolin-1-one formate], in assay [1], the concentration for half-maximal inhibition (IC50) is 25 nM and the “fold-selectivity (Cbl-b over C-cbl)” value was found to be 3.5x. For the same molecule, in assay [2], the Kd was 72 nM. In assay [3], the Fold of selectivity stood at 12× and the Kd is 5.8 nM. The IC50 in assay [4] is 86 nM.
